Like-named read-outs stand apart in the source and are kept apart here.
Columns and labels:
Format in all cases: in vivo
[1] = test system: Puccinia recondita f. sp. tritici (the causal agent of wheat leaf rust); assay: Test C: preventive spray on wheat seedlings, wheat leaf rust, visual disease rating; conditions: Puccinia recondita, 168 h; 10 ppm test suspension; wheat seedlings; 100 = 100% disease control, 0 = no control
Procedure, shortened: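 Wheat seedlings sprayed to run-off with compound in acetone/water (50/50) with 250 ppm PEG400, then inoculated with spores the following day. After 24 h saturated humidity at 20° C. and 6 days in growth chamber at 20° C., disease rated visually as % control relative to untreated controls.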

[2] = test system: Phakopsora pachyrhizi (the causal agent of Asian soybean rust); assay: Test A: preventive spray on soybean seedlings, Asian soybean rust, visual disease rating; conditions: Phakopsora pachyrhizi, 216 h; 10 ppm test suspension; soybean seedlings; 100 = 100% disease control, 0 = no control
Procedure, shortened: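 Compound in acetone/water (50/50) with 250 ppm PEG400 sprayed to run-off on soybean seedlings; inoculated next day with Phakopsora pachyrhizi spores. Held 24 h at 22° C in saturated atmosphere, then 8 days in a 22° C growth chamber before visual rating as % disease control relative to controls.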

[3] = test system: Phakopsora pachyrhizi (the causal agent of Asian soybean rust); assay: Test E: compounds alone and mixtures sprayed on soybean seedlings, Asian soybean rust, observed and Colby-expected disease control; parameters: key to Test E Obsd: 100 = 100% disease control, 0 = no disease control; conditions: for pest or weed control at 161.74 ppm: 161.740 ppm
Source text: The general protocol for preparing test compositions for TEST E was as follows: Compound 316, Compound 376, Compound 225, Compound 229, Compound 257, Compound 394, Compound 506, Compound 507, Compound 508, Compound 509, Compound 511, Compound 512, methyl N-[[5-[1-[2,6-difluoro-4-(1-methylethyl)phenyl]-1H-pyrazol-3-yl]-2-methylphenyl]methyl]carbamate (b54.11a), methyl N-[[5-[l-(4-cyclopropyl-2,6-difluorophenyl)-1H-pyrazol-3-yl]-2-methylphenyl]methyl]carbamate (b54.11d), ethyl 1-[[4-[[(1Z)-2-ethoxy-3,3,3-trifluoro-1-propen-1-yl]oxy]phenyl]methyl]-1H-pyrazole-4-carboxylate (b54.12a), ethyl 1-[[4-[[2-(trifluoromethyl)-1,3-dioxolan-2-yl]methoxy]phenyl]methyl]-1H-pyrazole-4-carboxylate (b54.13a), azoxystrobin, benzovindiflupyr, bixafen, chlorothalonil, cyproconazole, epoxiconazole, fenpropidin, fenpropimorph, fluindapyr, flutriafol, fluxapyroxad, inpyrfluxam, metominostrobin, picoxystrobin, prothioconazole, pydiflumetofen, pyraclostrobin, tebuconazole and trifloxystrobin were obtained as unformulated, technical-grade materials. Copper hydroxide and mancozeb was obtained as a formulated product marketed under the trademarks KOCIDE 3000 and MANZATE, respectively. Unformulated materials were first dissolved in acetone and then suspended at the desired concentration (in ppm) in acetone and purified water (50/50 mixture by volume) containing 250 ppm of the surfactant Trem® 014 (polyhydric alcohol esters). Formulated materials were dispersed in sufficient water to give the desired concentration, and neither organic solvent nor surfactant was added to the suspension. The resulting test mixtures were then used in TEST E. The tests were run on four individual plants and the results reported as the mean average of the four plants.
The presence of a synergistic effect between two active ingredients can be established with the aid of the Colby equation (see Colby, S. R. “Calculating Synergistic and Antagonistic Responses of Herbicide Combinations”, Weeds, (1967), 15, 20-22):
Using the method of Colby, the presence of a synergistic interaction between two active ingredients is established by first calculating the predicted activity, p, of the mixture based on activities of the two components applied alone. If p is lower than the experimentally established effect, synergism has occurred. In the equation above, A is the fungicidal activity in percentage control of one component applied alone at rate x. The B term is the fungicidal activity in percentage control of the second component applied at rate y. The equation estimates p, the expected fungicidal activity of the mixture of A at rate x with B at rate y if their effects are strictly additive and no interaction has occurred.
The test mixture was sprayed to the point of run-off on soybean seedlings. The following day the seedlings were inoculated with a spore suspension of Phakopsora pachyrhizi (the causal agent of Asian soybean rust) and incubated in a saturated atmosphere at 22° C. for 24 h and then moved to a growth chamber at 22° C. for 8 days, after which time visual disease ratings were made.
Results for Test E are given below in Tables A-1 through K-2. Each table corresponds to a set of evaluations performed together at the same time. In each table, a rating of 100 indicates 100% disease control and a rating of 0 indicates no disease control (relative to the controls). Columns labeled “Obsd” indicate the average of results observed from test run on four individual plants. Columns labeled “Exp” indicate the expected value for each treatment mixture using the Colby equation, as described above.

[4] = Phakopsora pachyrhizi, Compound 508 alone, read-out: Test E Obsd
[5] = Phakopsora pachyrhizi, applied alone, read-out: Test E Obsd
[6] = Phakopsora pachyrhizi, fenpropidin alone, read-out: Test E Obsd
[7] = Table B-1, component (b) alone: bixafen 11.327, fluxapyroxad 2.757, fluindapyr 8.820 ppm
[8] = Table B-1, component (b) alone: bixafen 19.525, fluxapyroxad 4.748, fluindapyr 15.230 ppm
[9] = Table B-2, component (b) alone: bixafen 11.327, fluxapyroxad 2.757, fluindapyr 8.820 ppm
[10] = Table B-2, component (b) alone: bixafen 19.525, fluxapyroxad 4.748, fluindapyr 15.230 ppm

Molecule: CCNC(=O)c1cnn(COCc2ccc(-c3noc(C(F)(F)F)n3)cc2)c1 [Compound 508, N-ethyl-1-[[[4-[5-(trifluoromethyl)-1,2,4-oxadiazol-3-yl]phenyl]methoxy]methyl]-1H-pyrazole-4-carboxamide]
- pest or weed control at 10 ppm [1]: 100%
- pest or weed control at 10 ppm [2]: 100%
- pest or weed control at 0.855 ppm [3, 4]: 0%
- pest or weed control at 1.716 ppm [3, 4]: 52%
- pest or weed control at 0.855 ppm [3, 5]: 23%
- pest or weed control at 1.716 ppm [3, 5]: 60%

Molecule: CO/C=C(/C(=O)OC)c1ccccc1COc1cccc(C(F)(F)F)n1 [picoxystrobin, reference compound]
- Test E Obsd (disease control rating) ([3]; Table A-1, component (b) alone: b54.13a 1.422, b54.12a 0.303, b54.11a 0.403, picoxystrobin 20.596 ppm): 73%
- Test E Obsd (disease control rating) ([3]; Table A-1, component (b) alone: b54.13a 2.276, b54.12a 0.489, b54.11a 0.652, picoxystrobin 38.865 ppm): 75%
- Test E Obsd (disease control rating) ([3]; Table A-2, component (b) alone: b54.13a 1.422, b54.12a 0.303, b54.11a 0.403, b54.11d 0.346, picoxystrobin 20.596 ppm): 73%
- Test E Obsd (disease control rating) ([3]; Table A-2, component (b) alone: b54.13a 2.276, b54.12a 0.489, b54.11a 0.652, b54.11d 0.764, picoxystrobin 33.865 ppm): 75%
- Test E Obsd ([3]; applied alone, 20.596 ppm): 28
- Test E Obsd ([3]; applied alone, 33.865 ppm): 43
- Test E Obsd ([3]; applied alone, 33.875 ppm): 43
- Test E Obsd ([3]; picoxystrobin alone, 20.596 ppm): 28
- Test E Obsd ([3]; picoxystrobin alone, 33.865 ppm): 43

Molecule: CC(Cc1ccc(C(C)(C)C)cc1)CN1CCCCC1 (stereo not shown) [fenpropidin, reference compound]
- pest or weed control at 78.393 ppm [3, 5]: 0%
- pest or weed control at 161.74 ppm [3, 5]: 52%
- pest or weed control at 78.393 ppm [3, 6]: 0%
- pest or weed control at 161.74 ppm [3, 6]: 52%

Molecule: Cn1cc(C(=O)Nc2ccc(F)cc2-c2ccc(Cl)c(Cl)c2)c(C(F)F)n1 [bixafen, reference compound]
- Test E Obsd (disease control rating) [3, 7]: 54%
- Test E Obsd (disease control rating) [3, 8]: 55%
- Test E Obsd (disease control rating) [3, 9]: 54%
- Test E Obsd (disease control rating) [3, 10]: 55%

Molecule: N#Cc1c(Cl)c(Cl)c(Cl)c(C#N)c1Cl [chlorothalonil, reference compound]
- pest or weed control at 138.129 ppm ([3]; Phakopsora pachyrhizi, applied alone, 138.129 ppm, read-out: Test E Obsd): 76%
- pest or weed control at 222.081 ppm ([3]; Phakopsora pachyrhizi, applied alone, 222.081 ppm, read-out: Test E Obsd): 88%

Molecule: CC1CC(C)(C)c2c(F)ccc(NC(=O)c3cn(C)nc3C(F)F)c21 (stereo not shown) [fluindapyr, reference compound]
- Test E Obsd (disease control rating) [3, 7]: 61%
- Test E Obsd (disease control rating) [3, 8]: 79%
- Test E Obsd (disease control rating) [3, 9]: 61%
- Test E Obsd (disease control rating) [3, 10]: 79%

Molecule: Cn1cc(C(=O)Nc2ccccc2-c2cc(F)c(F)c(F)c2)c(C(F)F)n1 [fluxapyroxad, reference compound]
- Test E Obsd (disease control rating) [3, 7]: 19%
- Test E Obsd (disease control rating) [3, 8]: 52%
- Test E Obsd (disease control rating) [3, 9]: 19%
- Test E Obsd (disease control rating) [3, 10]: 52%

Molecule: OC(Cc1ccccc1Cl)(Cn1nc[nH]c1=S)C1(Cl)CC1 (stereo not shown) [prothioconazole, reference compound]
- pest or weed control at 10.165 ppm ([3]; Phakopsora pachyrhizi, applied alone, 10.165 ppm, read-out: Test E Obsd): 34%
- pest or weed control at 16.339 ppm ([3]; Phakopsora pachyrhizi, applied alone, 16.339 ppm, read-out: Test E Obsd): 56%

Molecule: inpyrfluxam [reference compound]
- Test E Obsd ([3]; inpyrfluxam alone, 0.448 ppm): 56
- Test E Obsd ([3]; inpyrfluxam alone, 1.059 ppm): 79

Molecule: Cn1cc(C(=O)Nc2cccc3c2[C@@H]2CC[C@H]3C2=C(Cl)Cl)c(C(F)F)n1 (racemic) [benzovindiflupyr, reference compound]
- Test E Obsd (disease control rating) ([3]; Table F-1, component (b) alone: benzovindiflupyr 0.606, prothioconazole 10.165, chlorothalonil 138.129 ppm): 67%
- Test E Obsd (disease control rating) ([3]; Table F-1, component (b) alone: benzovindiflupyr 0.980, prothioconazole 16.339, chlorothalonil 222.081 ppm): 67%
- Test E Obsd (disease control rating) ([3]; Table F-2, component (b) alone: benzovindiflupyr 0.606, prothioconazole 10.165, chlorothalonil 138.129 ppm): 67%
- Test E Obsd (disease control rating) ([3]; Table F-2, component (b) alone: benzovindiflupyr 0.980, prothioconazole 16.339, chlorothalonil 222.081 ppm): 67%
- Test E Obsd ([3]; applied alone, 0.606 ppm): 51
- Test E Obsd ([3]; applied alone, 0.980 ppm): 68

Molecule: CO/C=C(/C(=O)OC)c1ccccc1Oc1cc(Oc2ccccc2C#N)ncn1 [azoxystrobin, reference compound]
- Test E Obsd (disease control rating) ([3]; Table D-1, component (b) alone: cyproconazole 37.333, azoxystrobin 95.873, trifloxystrobin 20.511 ppm): 70%
- Test E Obsd (disease control rating) ([3]; Table D-1, component (b) alone: cyproconazole 64.883, azoxystrobin 169.226, trifloxystrobin 35.310 ppm): 88%
- Test E Obsd (disease control rating) ([3]; Table D-2, component (b) alone: cyproconazole 37.333, azoxystrobin 95.873, trifloxystrobin 20.511 ppm): 70%
- Test E Obsd (disease control rating) ([3]; Table D-2, component (b) alone: cyproconazole 64.883, azoxystrobin 169.226, trifloxystrobin 35.310 ppm): 88%

Molecule: CON(C(=O)c1cn(C)nc1C(F)F)C(C)Cc1c(Cl)cc(Cl)cc1Cl (stereo not shown) [pydiflumetofen, reference compound]
- Test E Obsd (disease control rating) ([3]; Table E-1, component (b) alone: epoxiconazole 46.795, pydiflumetofen 70.950 ppm): 0%
- Test E Obsd (disease control rating) ([3]; Table E-1, component (b) alone: epoxiconazole 89.631, pydiflumetofen 135.850 ppm): 73%
- Test E Obsd (disease control rating) ([3]; Table E-2, component (b) alone: epoxiconazole 46.795, pydiflumetofen 70.950 ppm): 0%
- Test E Obsd (disease control rating) ([3]; Table E-2, component (b) alone: epoxiconazole 89.631, pydiflumetofen 135.850 ppm): 73%
- Test E Obsd (disease control rating) ([3]; Table G-1, component (b) alone: pydiflumetofen 41.364, pyraclostrobin 45.860, metominostrobin 29.673 ppm): 49%
- Test E Obsd (disease control rating) ([3]; Table G-1, component (b) alone: pydiflumetofen 128.793, pyraclostrobin 137.503, metominostrobin 86.003 ppm): 36%
- Test E Obsd (disease control rating) ([3]; Table G-2, component (b) alone: pydiflumetofen 41.364, pyraclostrobin 45.860, metominostrobin 29.673 ppm): 49%
- Test E Obsd (disease control rating) ([3]; Table G-2, component (b) alone: pydiflumetofen 128.793, pyraclostrobin 137.503, metominostrobin 86.003 ppm): 36%

— patent US20240090503A1, “FUNGICIDAL OXADIAZOLES AND THEIR MIXTURES” (FMC CORPORATION, priority 2020, published 2024)
